According to paper PMC3731320, “Identification of Benzimidazole Diamides as Selective Inhibitors of the Nucleotide-Binding Oligomerization Domain 2 (NOD2) Signaling Pathway” (PLoS ONE, 2013):
pIC50: −log10 of the molar value. “Also recorded” adds a separate entry of the source.

Key:
Type in all cases: cell-based, human
NOD2 [1] = assay: MDP-stimulated IL-8 secretion in NOD2 BacMam transduced HEK293T cells
Experimental: Over-expression of NOD1 and NOD2 was achieved by transduction of HEK293T cells with either NOD1 or NOD2 BacMam recombinant baculoviruses. […] The effect of compounds on activator-independent NOD1/2 signaling was determined by 30 minute pre-treatment of cells (in 96-well plates seeded the previous day in DMEM high glucose with 10% FBS at 60,000 cells/well) followed by infection with NOD1 or NOD2 BacMam virus (MOI = 50). IL-8 was measured in conditioned medium after 24 hour incubation at 37 °C. To determine the effect of compounds on NOD1/2 activator-dependent IL-8 secretion in BacMam transduced HEK293T, the cells were infected with virus for 6 hours (MOI = 50), and following the removal of virus the cells were cultured over-night. The next day medium was again replaced and cells pre-treated with compound for 30 minutes followed by stimulation with either MDP (30 ng/mL) or iE-DAP (300 ng/mL). IL-8 was measured in conditioned medium by HTRF after 24-hour incubation at 37 °C.

HCT116 cells = assay: Uptake of MDP-rhodamine by HCT116 cells (fluorescence microscopy); conditions: GSK669 up to 20 μM, chlorpromazine 20 μM, 1–4 hour
Experimental: HCT116 cells seeded onto glass cover-slips at low density were pre-treated with GSK669 or the endocytosis inhibitor chlorpromazine for 30 minutes before addition of 2.5 μg/mL MDP-rhodamine. Live cells were viewed periodically over 6-hours incubation at 37 °C using a Nikon eclipse TE2000-E fluorescent inverted microscope fitted with a CCTV camera and rhodamine filter.

NOD1 = assay: Western blot of MAPK phosphorylation and IκBα in Tri-DAP-stimulated 293/hNOD1 cells; conditions: GSK669 up to 30 μM
Experimental: Confluent cultures of 293/-hNOD1 and -hNOD2 cells in 24-well plates were serum-starved over-night. The next day, cells were pre-incubated for 1 hour with compound and then stimulated for 1 hour with either 50 μg/mL Tri-DAP or 25 μg/mL MDP, respectively. Whole cell lysates were prepared in 1X cell lysis buffer (Cell Signaling Technology) containing additional inhibitors of aspartic, cysteine and serine proteases and aminopeptidases (protease inhibitor cocktail set III, EMD Biosciences) and inhibitors of multiple phosphatases (phosphatase inhibitor cocktail sets II and III, Sigma-Aldrich). The levels of phosphorylated and total p38, JNK, ERK1/2 and total IκBα were determined by immunoblotting of ∼20 μg protein per sample using the following primary antibodies: phospho-p38 MAPK (12F8, #4631), p38 MAPK (#9212), phospho-JNK (#9251), JNK (#9252) and IκBα (#9242) all purchased from Cell Signaling Technology, and phospho-ERK1/2 (sc-7383) and ERK1/2 (sc-94) antibodies from Santa Cruz Biotechnology.

NOD2 [2] = assay: ssRNA-induced IFNβ gene expression in 293/hNOD2 cells (real-time RT-PCR); conditions: GSK669 0.16–16 μM, RIP2 inhibitor 0.1 μM, mRNA after 6 hours
Experimental: Cells seeded in 96-well plates at sub-confluent density (60,000/well) in DMEM + 1% FBS were transfected for 6 hours with ssRNA40 (1.25–6.67 μg/mL) using lipofectamine 2000 (Invitrogen) and RNA/liposome complexes prepared in Opti-MEM1 medium (Invitrogen). Induction of IFNβ gene expression was measured by real-time reverse transcription PCR (Taqman). RNA was isolated from cell extracts in Trizol (Invitrogen) using the RNeasy kit (Qiagen), and mRNA quantified following reverse transcription and PCR amplification using Taqman reverse transcription and Taqman PCR core reagent kits, pre-formulated primer/probe mixes and ABI 7900 sequence detection system (Applied Biosystems). Expression of IFNβ (ABI primer/probe mix Hs01077958_s1) was normalized to 18S ribosomal RNA.

## O=C(Cn1c(CCNC(=O)c2ccccc2)nc2ccccc21)Nc1ccc2c(c1)CCC2 [Compound 1, N-(2-(1-(2-((2,3-dihydro-1H-inden-5-yl)amino)-2-oxoethyl)-1H-benzo[d]imidazol-2-yl)ethyl)benzamide]
NOD2 [1]; HEK293T, 6 hours virus then MDP 30 ng/mL, GSK669 5 μM, IKK inhibitor 0.5 μM
  effect on MDP response in NOD2 transduced cells, single concentration: selectively blocked the MDP response
NOD2 [1]; Homo sapiens, HEK-293T, 6 hours transduction, then MDP 30 ng/mL 24 hours, IL-8, read-out: IC50, MDP response in NOD2 transduced HEK293T cells
  pIC50: 6.30
HCT116 cells
  effect on uptake of Rhodamine-MDP into cells: unaffected; also recorded: does not block cellular uptake of MDP
NOD1
  effect on Tri-DAP-induced p-p38, p-JNK and total IκBα: inactive
NOD2 [2]
  effect on ssRNA-induced IFNβ expression: unaffected; also recorded: did not block
